Laboratory results: patent US20150125550A1, “APPLICATION OF 2,9-DI-SEC-BUTYL-1,10-PHENANTHROLINE AS A GLIOBLASTOMA TUMOR CHEMOTHERAPY” (priority 2013, published 2015)

Test system: GL-26 glioma cells
Assay: TUNEL apoptosis staining of cultured cells
Assay type: cell-based, murine (C57BL/6)
Protocol: Histology: For brain tumor histology, mice were perfused intracardially with 4% formaldehyde in Na+/K+ balanced PBS and brains were extracted, incubated in 4% formaldehyde overnight followed by 30% sucrose in Na+/K+ balanced PBS. Brains were flash frozen in isopentane, embedded in optimal cutting temperature compound (OCT), cryosectioned in coronal sections (12 μm) and stained with hematoxylin and eosin. Another cohort of equivalently drug-treated mice was used for liver, lung and gut histology. The mice were then sacrificed on day 19, and the liver, lung and gut tissues were collected and placed in 4% formaldehyde in Na+/K+ balanced PBS overnight. The organs were then placed for 48 hrs in 70% EtOH before paraffin embedding and sectioning at 6 μm. Sections were then stained with hematoxylin and eosin and pathology was assessed blindly and independently by a trained pathologist. A TUNEL staining kit was obtained from TREVIGEN (NeuroTACS II In Situ Apoptosis Detection Kit, Cat#4823-30-K) and used for both ex-vivo slices and in-vitro staining according to manufacturers instructions.

SMILES: CCC(C)c1ccc2ccc3ccc(C(C)CC)nc3c2n1 (stereo not shown) [Compound 1, 2,9-di-sec-butyl-1,10-phenanthroline]
- apoptosis (TUNEL) in cultured GL-26 cells: kills GL-26 cells by inducing apoptosis
